Test results published in paper PMC6511062, “Preclinical candidate for the treatment of visceral leishmaniasis that acts through proteasome inhibition” (Proceedings of the National Academy of Sciences of the …, 2019).

Columns and labels:
bloodstream T. brucei = experiment: Cell cycle (FACS) analysis, bloodstream T. brucei; format: cell-based, Trypanosoma brucei; conditions: 5x EC50
Description: (§1) consisted of 1 µL (40 ng) of cDNA, 10 µL of Brilliant III Ultra-Fast QPCR Master Mix (Agilent Technologies), 1 µL (500 nM) each of the forward and reverse primers, and 0.3 µl (30 nM) of reference dye and nuclease-free PCR grade-treated water. PCR was performed using an Agilent Mx3005P machine with the following cycling conditions:
(§2) 95°C for 3 min; 40 cycles of 95°C for 20 s; then 60 °C for 20 s. The reference gene TERT (Tb927.11.10190, telomerase reverse transcriptase) was used to provide a baseline of transcription levels for normalization of the data. Relative quantification in the tetracycline-induced cell lines were normalized to the un-induced cell line using the […]
(§3) h. Morphological analysis […]
(§4) Cultures of bloodstream T. brucei and L. donovani promastigotes at starting cell densities of 5 x 105 were incubated with concentrations of compound 7 equivalent to 5x their respective EC50 values. […] After washing, cell densities were adjusted to 5 × 10^5 cells mL, re-suspended in 500 µL of PBS containing 50 µg/mL propidium iodide, 50 µg/mL RNase and 0.1% Triton X-100, incubated at room temperature for 20 min in the dark and analysed using FACSort analytical flow cytometer using Cellquest software (BD Biosciences). j. […]

[1] = tested on: L. donovani promastigotes; experiment: Cell cycle (FACS) analysis, L. donovani promastigotes; format: cell-based, Leishmania donovani; conditions: 5x EC50
Description: as §1, §2, §3, §4

Host Cell = experiment: Host cell toxicity in the clinical strain panel; format: cell-based
Description: page 46: Supplementary Tables Table S1. […] MHOM/IN/2002/BHU1 0.6 >50 […] Results from one or two (both values shown) biological replicates. Table S2. […] Data represents % of reduction of parasite burden in drug- treated and vehicle control animals calculated from mean LDU data.

L. donovani (LV9) = experiment: Mouse model of VL (in vivo efficacy in female Balb/C mice); design: species or system Leishmania donovani; conditions: 50 mg/kg b.i.d. (10 days PO)
[2] = Pharmacokinetics in male beagle dogs; format: in vivo, dog
Description: (§5) 5. Intrinsic clearance (CLint) […]
(§6) 6. Pharmacokinetic studies.
(§7) Mouse pharmacokinetic studies were conducted in male CD-1 mice and male beagle dogs. 3 animals per group were used for each study performed.
(§8) A dose of 3 mg/kg was administered intravenously, in a bolus form to mice and infused over a 30 min period to dogs. For all the intravenous studies compound were dissolved in 5% DMSO/20% kleptose in saline.
(§9) A dose of 10 mg/kg was orally administered by gavage to the two species in a suspension of 1% methylcellulose to investigate oral pharmacokinetics.
(§10) Peripheral blood samples were obtained at 5, 15, 30 min, 1, 2, 4, 6 ,8 and 24 h after intravenous administration and 15, 30, 45 min,1, 2, 4, 6, 8 and 24 h after oral administration. Blood was 1/2 diluted with milliQ water and immediately frozen on dry ice until analysis. Quantification was performed by means of LC-MS/MS (API4000), with a lower limit of quantification of 1 ng/mL.
(§11) Pharmacokinetic parameters, namely clearance (CL), volume of distribution at steady state (Vss) and bioavailability (F%), were estimated using Phoenix, WinNonLin […]
(§12) Data analysis and calculation of pharmacokinetic parameters was performed using Phoenix, WinNonLin Version 6.3.
(§13) Following the intravenous administration, the whole blood clearance was calculated

[3] = Pharmacokinetics in male CD-1 mice; format: in vivo, mouse
Description: as §5, §6, §7, §8, §9, §10, §11, §12, §13

[4] = biological target: chymotrypsin-like activity of the L. donovani proteasome (Leishmania donovani, UniProt A0A3S7XA80+A0ACM8QMP6); experiment: biochemical
Description: (§14) An in vitro assay was developed that enabled the chymotrypsin-like activity and additional proteolytic activities associated with the proteasome to be directly monitored within proteasome-enriched parasite cell lysates. Likewise, human proteasome from two sources (i.e., commercially pure 26S and enriched proteasome fractions from THP-1 lysates) was tested using the same biochemical assays.
(§15) Proteasome enrichment by ultracentrifugation
(§16) The protocol described by Kisselev et al.34 was adapted to enrich the proteasomes present in L. donovani and THP1 crude extracts. L. donovani or THP1 cells were resuspended in sucrose buffer (50 mM Tris buffer pH 7.5, 5 mM Magnesium chloride, 1 mM EDTA, 50 mM NaCl, 250 mM sucrose, 2 mM ATP, 1 mM DTT) and lysed by nitrogen cavitation for 15 min (110 bars of 1500 psi). Lysates were centrifuged at 20,000g for 30 min at 4 °C and supernatants containing soluble protein were subjected to an ultracentrifugation step at 300,000g for 2h at 4 °C. The resulting proteasome-containing pellets were resuspended in sucrose buffer and left on ice for 30 min to complete solubilization. Samples were centrifuged for 10 min at 20,000 g to remove insoluble material. Proteins contained in supernatant (proteasome enriched fraction) were measured by Bradford.
Proteasome activity assays
(§17) Compounds were dispensed into black 384-well assay plates (Greiner) by acoustic dispensing (LabCyte ECHO). For potency determinations, eleven-point, one in three dilution curves were generated, with a top concentration of 100 µM. Three proteasome activities were measured using a commercially available indirect enzyme-based luminescent assay kit (Promega) with Suc-LLVY-aminoluciferin, Z-LRR-aminoluciferin and Z-nLPnLD-aminoluciferin used as substrates for chymotrypsin-like, trypsin-like and caspase-like activities, respectively. In addition to proteasome samples: L. donovani and THP1-enriched proteasomes, commercially available human purified 26S proteasome (Boston Biochem) was also assessed.

[5] = biological target: chymotrypsin-like activity of the L. donovani proteasome (Leishmania donovani, UniProt A0A3S7XA80+A0ACM8QMP6, G197C/T30A); experiment: biochemical
Description: as §14, §15, §16
Proteasome activity assays
as §17

[6] = male, beagle, whole blood, dog, 3 mg/kg iv 0.5 h infusion
[7] = male, CD-1, whole blood, mouse, 3 mg/kg iv bolus

Sequence of chymotrypsin-like activity of the L. donovani proteasome (Leishmania donovani, UniProt A0A3S7XA80+A0ACM8QMP6) (A0ACM8QMP6 100-302): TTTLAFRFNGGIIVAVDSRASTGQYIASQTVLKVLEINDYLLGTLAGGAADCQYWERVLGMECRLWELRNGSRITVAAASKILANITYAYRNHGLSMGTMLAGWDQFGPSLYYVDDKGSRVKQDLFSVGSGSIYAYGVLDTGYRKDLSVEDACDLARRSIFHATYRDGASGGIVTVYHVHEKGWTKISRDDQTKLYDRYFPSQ
Sequence of chymotrypsin-like activity of the L. donovani proteasome (Leishmania donovani, UniProt A0A3S7XA80+A0ACM8QMP6) (A0A3S7XA80 1-206): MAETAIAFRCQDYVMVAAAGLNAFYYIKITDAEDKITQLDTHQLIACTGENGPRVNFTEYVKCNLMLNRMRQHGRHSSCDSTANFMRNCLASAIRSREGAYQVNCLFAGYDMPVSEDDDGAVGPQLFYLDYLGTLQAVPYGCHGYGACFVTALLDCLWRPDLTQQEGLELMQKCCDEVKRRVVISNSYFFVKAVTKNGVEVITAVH
Sequence of chymotrypsin-like activity of the L. donovani proteasome (Leishmania donovani, UniProt A0A3S7XA80+A0ACM8QMP6, G197C/T30A) (A0ACM8QMP6 entry or part of it, stated change not applied): as the sequence (A0ACM8QMP6 100-302) above
Sequence of chymotrypsin-like activity of the L. donovani proteasome (Leishmania donovani, UniProt A0A3S7XA80+A0ACM8QMP6, G197C/T30A) (A0A3S7XA80 whole entry, stated change not applied, the tested form may be a part): as the sequence (A0A3S7XA80 1-206) above

O=C(Nc1ccc(F)c(-c2cn3nc(-c4ccccc4)cnc3n2)c1)N1CCCC1 [Compound 7]
effect on cell cycle progression (bloodstream T. brucei): accumulation of cells in G2/M
effect on cell cycle progression [1]: accumulation of cells in G2/M

O=C(Nc1ccc(F)c(-c2ccn3c(N4CCOCC4)cnc3n2)c1)N1CCCC1 [Compound 8]
EC50 (Host Cell; strain MHOM/ET/67/HU3 (LV9)): > 50 µM
EC50 (Host Cell; strain MHOM/IN/80/DD8): > 50 µM
EC50 (Host Cell; strain MHOM/IN/2002/BHU1): > 50 µM
EC50 (Host Cell; strain MHOM/MA/67/ITMAP263): > 50 µM
EC50 (Host Cell; strain SUKA001): > 50 µM
Reduction in parasite burden (compared to the vehicle control group) (L. donovani (LV9)): 99.1%
blood clearance ([2]; dog): 30 mL/min per kilogram
Cl (%LBF) ([2]; dog, 3 mg/kg iv): 53%
Vss ([2]; dog, 3 mg/kg iv 0.5 h infusion, 3 mg/kg): 1.3 L/kg
Vd ([2]; male, beagle, dog, whole blood, iv, 3 mg/kg, dog, 3 mg/kg iv 0.5 h infusion, read-out: Vss): 1.34 ± 0.381 L/kg
clearance [2, 6]: 29.6 ± 6.06 mL/min/kg
half-life [2, 6]: 31.2 ± 4.8 min
bioavailability ([2]; whole blood, Beagle male dog, 10 mg/kg po, read-out: F (oral bioavailability)): 46%
clearance [3, 7]: 40.7 ± 13.6 mL/min/kg
half-life [3, 7]: 39 ± 19.2 min
Vd ([3]; male, CD-1, whole blood, mouse, 3 mg/kg iv bolus, read-out: Vss): 2.2 L/kg
blood clearance ([3]; mouse): 41 mL/min per kilogram
Cl (%LBF) ([3]; mouse, 3 mg/kg iv): 32%
bioavailability ([3]; whole blood, CD-1 male mouse, 10 mg/kg po, read-out: F (oral bioavailability)): 18%
IC50 [4]: 0.16 ± 0.01 µM
IC50 [5]: > 100 µM
